# Target: T1, umami taste receptor (T1R1/T1R3) (Homo sapiens, UniProt Q7RTX0+Q7RTX1, C757R)
# T1 construct: expressed in transfected cells; host or cells: HEK293T (ATCC CRL-11268)
# T1 sequence (Q7RTX1 21-841): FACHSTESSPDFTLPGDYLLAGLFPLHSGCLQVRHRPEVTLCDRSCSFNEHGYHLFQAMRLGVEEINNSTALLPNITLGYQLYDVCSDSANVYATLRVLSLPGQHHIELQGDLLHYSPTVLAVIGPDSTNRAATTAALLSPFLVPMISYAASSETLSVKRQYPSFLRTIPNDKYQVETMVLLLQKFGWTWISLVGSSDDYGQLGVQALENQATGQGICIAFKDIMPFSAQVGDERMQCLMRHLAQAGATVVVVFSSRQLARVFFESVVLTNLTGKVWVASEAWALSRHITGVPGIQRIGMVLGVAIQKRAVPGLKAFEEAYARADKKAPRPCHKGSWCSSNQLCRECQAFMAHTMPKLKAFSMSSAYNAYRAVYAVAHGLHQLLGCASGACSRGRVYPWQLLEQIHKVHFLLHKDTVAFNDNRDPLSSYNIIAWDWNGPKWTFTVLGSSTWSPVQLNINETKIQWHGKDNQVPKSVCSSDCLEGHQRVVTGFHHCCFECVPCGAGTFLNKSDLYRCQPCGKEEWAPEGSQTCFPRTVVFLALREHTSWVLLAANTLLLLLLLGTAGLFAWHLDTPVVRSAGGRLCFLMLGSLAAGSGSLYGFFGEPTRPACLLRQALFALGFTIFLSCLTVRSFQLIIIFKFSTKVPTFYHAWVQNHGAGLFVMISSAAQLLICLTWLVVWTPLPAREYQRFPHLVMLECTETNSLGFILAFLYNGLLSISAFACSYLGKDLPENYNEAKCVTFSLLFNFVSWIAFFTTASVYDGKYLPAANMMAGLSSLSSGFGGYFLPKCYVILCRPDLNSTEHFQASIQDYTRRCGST
# T1 sequence (Q7RTX0 21-852 C757R): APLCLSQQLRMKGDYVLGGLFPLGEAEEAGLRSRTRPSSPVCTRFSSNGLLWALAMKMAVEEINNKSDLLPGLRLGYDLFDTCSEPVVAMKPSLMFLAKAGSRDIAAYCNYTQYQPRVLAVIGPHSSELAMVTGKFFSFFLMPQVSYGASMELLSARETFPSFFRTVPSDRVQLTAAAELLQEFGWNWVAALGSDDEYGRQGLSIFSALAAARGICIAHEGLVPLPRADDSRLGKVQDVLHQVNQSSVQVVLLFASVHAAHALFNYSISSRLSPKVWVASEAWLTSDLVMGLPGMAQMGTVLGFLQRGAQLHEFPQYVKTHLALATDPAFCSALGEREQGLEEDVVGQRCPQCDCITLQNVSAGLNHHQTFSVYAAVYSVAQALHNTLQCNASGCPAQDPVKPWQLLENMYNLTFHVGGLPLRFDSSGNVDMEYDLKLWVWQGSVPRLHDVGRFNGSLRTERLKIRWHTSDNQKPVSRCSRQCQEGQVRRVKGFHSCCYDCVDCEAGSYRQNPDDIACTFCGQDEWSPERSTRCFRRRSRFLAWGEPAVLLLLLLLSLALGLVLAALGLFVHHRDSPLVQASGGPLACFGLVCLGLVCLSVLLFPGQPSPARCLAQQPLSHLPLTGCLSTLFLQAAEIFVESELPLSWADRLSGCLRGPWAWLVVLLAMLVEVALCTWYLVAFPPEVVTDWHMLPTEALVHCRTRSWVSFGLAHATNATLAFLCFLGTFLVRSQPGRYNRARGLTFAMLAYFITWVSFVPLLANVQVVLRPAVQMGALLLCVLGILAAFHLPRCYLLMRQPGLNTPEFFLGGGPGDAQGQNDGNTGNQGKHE
# Test: Umami cell-based calcium flux assay, HEK293T cells expressing T1R1, T1R3 and mouse Gα15
# Conditions: FIG. 6; high density, coated plates, low glucose media, serum deprivation
structure (smiles),measurement,value
O=C(CO)[C@@H](O)[C@H](O)[C@H](O)CO [fructose],"response of cells grown in the ""Final"" growth conditions",not

# Source: US20170052170A1, “NOVEL CELL LINES AND METHODS” (priority 2009, published 2017)
